Measured values taken from ChEMBL document CHEMBL4507296 (2021).
Activity calls are given as the source filed them. No cut-off for these calls is given here.

How the values were obtained:
[1] = molecular target: Substance-P receptor (Homo sapiens) (UniProt P25103); assay: Neurokinin 1 (human) CEREP ligand profiling; settings: Compound concentration 10.0 uM
[2] = molecular target: Ribosomal protein S6 kinase alpha-6 (Homo sapiens) (UniProt Q9UK32); settings: Compound concentration 1000.0 nM
[3] = molecular target: Histamine H3 receptor (Homo sapiens) (UniProt Q9Y5N1); settings: Compound concentration 10.0 uM
[4] = molecular target: Calcium/calmodulin-dependent protein kinase type 1D (Homo sapiens) (UniProt Q8IU85); settings: Compound concentration 1000.0 nM
[5] = molecular target: Tyrosine-protein kinase CSK (Homo sapiens) (UniProt P41240); settings: Compound concentration 1000.0 nM
[6] = molecular target: Ephrin type-B receptor 1 (Homo sapiens) (UniProt P54762); settings: Compound concentration 1000.0 nM
[7] = molecular target: Dual specificity mitogen-activated protein kinase kinase 6 (Homo sapiens) (UniProt P52564); settings: Compound concentration 1000.0 nM
[8] = molecular target: 5'-AMP-activated protein kinase catalytic subunit alpha-1 (Homo sapiens) (UniProt Q13131); settings: Compound concentration 1000.0 nM
[9] = test system: Phosphatidylinositol 4,5-bisphosphate 3-kinase catalytic subunit alpha isoform (Homo sapiens), P42336 [E545A]; settings: Compound concentration 1000.0 nM
[10] = molecular target: Glycogen synthase kinase-3 alpha (Homo sapiens) (UniProt P49840); settings: Compound concentration 1000.0 nM
[11] = test system: Epidermal growth factor receptor (Homo sapiens), P00533 [G719C]; settings: Compound concentration 1000.0 nM
[12] = molecular target: 3-phosphoinositide-dependent protein kinase 1 (Homo sapiens) (UniProt O15530); settings: Compound concentration 1000.0 nM
[13] = molecular target: Aurora kinase B (Homo sapiens) (UniProt Q96GD4); settings: Compound concentration 1000.0 nM
Aurora kinase B (Homo sapiens), sequence (Q96GD4 whole entry, canonical isoform): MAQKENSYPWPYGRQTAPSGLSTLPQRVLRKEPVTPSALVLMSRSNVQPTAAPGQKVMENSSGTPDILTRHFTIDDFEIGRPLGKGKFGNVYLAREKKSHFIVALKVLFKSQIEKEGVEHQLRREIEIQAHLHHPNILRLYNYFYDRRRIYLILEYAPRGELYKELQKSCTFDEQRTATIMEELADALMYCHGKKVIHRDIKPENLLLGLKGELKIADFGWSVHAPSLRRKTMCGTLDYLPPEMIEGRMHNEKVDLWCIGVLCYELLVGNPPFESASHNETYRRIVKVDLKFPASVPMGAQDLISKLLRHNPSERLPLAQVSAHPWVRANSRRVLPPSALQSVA

[14] = test system: Phosphatidylinositol 4,5-bisphosphate 3-kinase catalytic subunit alpha isoform (Homo sapiens), P42336 [E542K]; settings: Compound concentration 1000.0 nM
[15] = molecular target: Ribosomal protein S6 kinase alpha-1 (Homo sapiens) (UniProt Q15418); settings: Compound concentration 1000.0 nM
[16] = molecular target: Ribosomal protein S6 kinase alpha-2 (Homo sapiens) (UniProt Q15349); settings: Compound concentration 1000.0 nM
[17] = molecular target: Mitogen-activated protein kinase kinase kinase 3 (Homo sapiens) (UniProt Q99759); settings: Compound concentration 1000.0 nM
Mitogen-activated protein kinase kinase kinase 3 (Homo sapiens), sequence (Q99759 whole entry): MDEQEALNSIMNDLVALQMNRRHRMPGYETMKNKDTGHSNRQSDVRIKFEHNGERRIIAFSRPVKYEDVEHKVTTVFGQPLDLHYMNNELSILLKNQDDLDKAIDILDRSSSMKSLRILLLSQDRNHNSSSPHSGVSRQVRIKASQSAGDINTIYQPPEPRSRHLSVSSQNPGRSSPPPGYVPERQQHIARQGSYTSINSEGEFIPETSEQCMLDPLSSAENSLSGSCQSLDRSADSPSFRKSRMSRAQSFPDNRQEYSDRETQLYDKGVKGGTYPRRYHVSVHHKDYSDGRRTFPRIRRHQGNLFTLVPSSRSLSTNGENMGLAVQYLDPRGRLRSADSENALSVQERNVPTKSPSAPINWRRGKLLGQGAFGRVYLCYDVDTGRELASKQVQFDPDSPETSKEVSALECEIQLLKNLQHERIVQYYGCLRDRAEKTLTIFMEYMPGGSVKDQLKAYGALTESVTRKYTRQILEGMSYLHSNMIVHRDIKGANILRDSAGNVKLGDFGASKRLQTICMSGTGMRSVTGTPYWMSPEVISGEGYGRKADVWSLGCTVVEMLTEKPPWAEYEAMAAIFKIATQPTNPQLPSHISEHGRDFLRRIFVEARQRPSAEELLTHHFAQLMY

[18] = molecular target: NUAK family SNF1-like kinase 2 (Homo sapiens) (UniProt Q9H093); settings: Compound concentration 1000.0 nM
[19] = molecular target: Serine/threonine-protein kinase PAK 6 (Homo sapiens) (UniProt Q9NQU5); settings: Compound concentration 1000.0 nM
[20] = molecular target: Tyrosine-protein kinase Lck (Homo sapiens) (UniProt P06239); settings: Compound concentration 1000.0 nM
[21] = molecular target: Proto-oncogene tyrosine-protein kinase ROS (Homo sapiens) (UniProt P08922); settings: Compound concentration 1000.0 nM
[22] = molecular target: Tyrosine-protein kinase ABL1 (Homo sapiens) (UniProt P00519); settings: Compound concentration 1000.0 nM
[23] = test system: Tyrosine-protein kinase ABL1 (Homo sapiens), P00519 [H396P]; settings: Compound concentration 1000.0 nM
[24] = molecular target: Calcium/calmodulin-dependent protein kinase type II subunit beta (Homo sapiens) (UniProt Q13554); settings: Compound concentration 1000.0 nM
[25] = molecular target: Mast/stem cell growth factor receptor Kit (Homo sapiens) (UniProt P10721); settings: Compound concentration 1000.0 nM
[26] = molecular target: NT-3 growth factor receptor (Homo sapiens) (UniProt Q16288); settings: Compound concentration 1000.0 nM
[27] = molecular target: Serine/threonine-protein kinase DCLK2 (Homo sapiens) (UniProt Q8N568); settings: Compound concentration 1000.0 nM
Serine/threonine-protein kinase DCLK2 (Homo sapiens), sequence (Q8N568 whole entry): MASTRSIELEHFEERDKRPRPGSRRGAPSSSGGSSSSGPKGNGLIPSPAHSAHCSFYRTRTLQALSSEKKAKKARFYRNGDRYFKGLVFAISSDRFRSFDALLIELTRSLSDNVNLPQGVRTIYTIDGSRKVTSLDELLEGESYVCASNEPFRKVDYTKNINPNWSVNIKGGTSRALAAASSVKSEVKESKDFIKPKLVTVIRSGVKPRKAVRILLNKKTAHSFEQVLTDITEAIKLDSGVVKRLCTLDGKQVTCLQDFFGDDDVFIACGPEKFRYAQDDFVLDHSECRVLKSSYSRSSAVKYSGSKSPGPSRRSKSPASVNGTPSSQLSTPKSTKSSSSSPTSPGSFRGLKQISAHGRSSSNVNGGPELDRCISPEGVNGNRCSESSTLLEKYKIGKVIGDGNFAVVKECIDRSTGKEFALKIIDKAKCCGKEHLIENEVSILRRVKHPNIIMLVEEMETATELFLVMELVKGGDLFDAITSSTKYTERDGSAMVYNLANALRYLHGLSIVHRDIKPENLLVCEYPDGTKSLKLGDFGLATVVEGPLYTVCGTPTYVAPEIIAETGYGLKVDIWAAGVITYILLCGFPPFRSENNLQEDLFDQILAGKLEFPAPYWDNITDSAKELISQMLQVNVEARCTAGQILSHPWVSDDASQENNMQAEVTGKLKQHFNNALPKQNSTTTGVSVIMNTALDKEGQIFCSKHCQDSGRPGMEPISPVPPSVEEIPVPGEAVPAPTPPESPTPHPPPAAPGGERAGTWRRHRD

[28] = test system: Mast/stem cell growth factor receptor Kit (Homo sapiens), P10721 [V559D]; settings: Compound concentration 1000.0 nM
Mast/stem cell growth factor receptor Kit (Homo sapiens), P10721 [V559D], sequence (P10721 whole entry V559D, the tested form may be a part): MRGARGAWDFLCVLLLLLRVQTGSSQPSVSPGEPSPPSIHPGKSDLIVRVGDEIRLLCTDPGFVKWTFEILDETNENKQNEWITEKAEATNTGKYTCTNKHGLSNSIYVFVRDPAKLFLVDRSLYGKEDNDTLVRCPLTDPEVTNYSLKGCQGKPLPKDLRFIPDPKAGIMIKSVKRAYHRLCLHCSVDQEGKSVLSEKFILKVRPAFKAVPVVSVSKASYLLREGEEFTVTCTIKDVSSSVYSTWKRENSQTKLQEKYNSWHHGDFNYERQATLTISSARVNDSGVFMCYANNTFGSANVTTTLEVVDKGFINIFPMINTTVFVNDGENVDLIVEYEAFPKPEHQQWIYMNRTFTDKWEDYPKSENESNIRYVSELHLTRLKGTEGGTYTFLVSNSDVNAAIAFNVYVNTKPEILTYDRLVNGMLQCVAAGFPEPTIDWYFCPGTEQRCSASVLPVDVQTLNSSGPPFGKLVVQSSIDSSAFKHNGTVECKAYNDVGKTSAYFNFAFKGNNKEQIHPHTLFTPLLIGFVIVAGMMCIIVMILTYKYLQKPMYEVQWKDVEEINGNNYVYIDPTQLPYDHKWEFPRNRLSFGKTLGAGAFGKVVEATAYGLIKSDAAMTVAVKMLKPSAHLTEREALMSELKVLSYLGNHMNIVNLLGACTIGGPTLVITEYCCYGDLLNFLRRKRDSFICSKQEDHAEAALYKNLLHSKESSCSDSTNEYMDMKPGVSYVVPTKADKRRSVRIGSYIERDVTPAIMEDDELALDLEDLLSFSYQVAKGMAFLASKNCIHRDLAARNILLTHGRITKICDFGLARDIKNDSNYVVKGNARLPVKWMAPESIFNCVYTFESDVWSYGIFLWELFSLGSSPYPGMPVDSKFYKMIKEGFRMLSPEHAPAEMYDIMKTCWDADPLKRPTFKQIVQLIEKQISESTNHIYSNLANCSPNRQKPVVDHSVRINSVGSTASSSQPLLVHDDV

[29] = molecular target: LIM domain kinase 1 (Homo sapiens) (UniProt P53667); settings: Compound concentration 1000.0 nM
[30] = molecular target: Mitogen-activated protein kinase kinase kinase 5 (Homo sapiens) (UniProt Q99683); settings: Compound concentration 1000.0 nM
[31] = test system: Phosphatidylinositol 4,5-bisphosphate 3-kinase catalytic subunit alpha isoform (Homo sapiens), P42336 [I800L]; settings: Compound concentration 1000.0 nM
[32] = test system: Serine/threonine-protein kinase B-raf (Homo sapiens), P15056 [V600E]; settings: Compound concentration 1000.0 nM
[33] = molecular target: Phosphatidylinositol 4-phosphate 5-kinase type-1 alpha (Homo sapiens) (UniProt Q99755); settings: Compound concentration 1000.0 nM
Phosphatidylinositol 4-phosphate 5-kinase type-1 alpha (Homo sapiens), sequence (Q99755 whole entry): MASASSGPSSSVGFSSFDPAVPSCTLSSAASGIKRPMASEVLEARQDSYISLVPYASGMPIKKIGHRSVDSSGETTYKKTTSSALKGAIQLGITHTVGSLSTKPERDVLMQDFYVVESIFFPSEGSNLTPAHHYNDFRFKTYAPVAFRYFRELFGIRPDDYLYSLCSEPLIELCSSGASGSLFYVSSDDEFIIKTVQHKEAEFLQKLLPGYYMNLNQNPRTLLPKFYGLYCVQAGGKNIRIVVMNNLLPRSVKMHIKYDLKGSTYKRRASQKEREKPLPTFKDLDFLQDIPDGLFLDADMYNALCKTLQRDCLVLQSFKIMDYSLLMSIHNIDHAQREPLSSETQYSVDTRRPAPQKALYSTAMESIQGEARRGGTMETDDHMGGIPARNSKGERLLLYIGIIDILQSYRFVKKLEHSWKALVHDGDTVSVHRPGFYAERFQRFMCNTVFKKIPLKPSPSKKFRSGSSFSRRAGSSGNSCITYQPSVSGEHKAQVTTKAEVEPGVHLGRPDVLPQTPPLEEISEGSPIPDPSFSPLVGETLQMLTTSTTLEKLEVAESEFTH

[34] = molecular target: Dual serine/threonine and tyrosine protein kinase (Homo sapiens) (UniProt Q6XUX3); settings: Compound concentration 1000.0 nM
[35] = molecular target: Testis-specific serine/threonine-protein kinase 1 (Homo sapiens) (UniProt Q9BXA7); settings: Compound concentration 1000.0 nM
[36] = molecular target: Transient receptor potential cation channel subfamily M member 8 (Homo sapiens, UniProt Q7Z2W7); assay: Cold activation
[37] = molecular target: Mitogen-activated protein kinase kinase kinase 11 (Homo sapiens) (UniProt Q16584); settings: Compound concentration 1000.0 nM
[38] = molecular target: TGF-beta receptor type-2 (Homo sapiens) (UniProt P37173); settings: Compound concentration 1000.0 nM
TGF-beta receptor type-2 (Homo sapiens), sequence (P37173 whole entry): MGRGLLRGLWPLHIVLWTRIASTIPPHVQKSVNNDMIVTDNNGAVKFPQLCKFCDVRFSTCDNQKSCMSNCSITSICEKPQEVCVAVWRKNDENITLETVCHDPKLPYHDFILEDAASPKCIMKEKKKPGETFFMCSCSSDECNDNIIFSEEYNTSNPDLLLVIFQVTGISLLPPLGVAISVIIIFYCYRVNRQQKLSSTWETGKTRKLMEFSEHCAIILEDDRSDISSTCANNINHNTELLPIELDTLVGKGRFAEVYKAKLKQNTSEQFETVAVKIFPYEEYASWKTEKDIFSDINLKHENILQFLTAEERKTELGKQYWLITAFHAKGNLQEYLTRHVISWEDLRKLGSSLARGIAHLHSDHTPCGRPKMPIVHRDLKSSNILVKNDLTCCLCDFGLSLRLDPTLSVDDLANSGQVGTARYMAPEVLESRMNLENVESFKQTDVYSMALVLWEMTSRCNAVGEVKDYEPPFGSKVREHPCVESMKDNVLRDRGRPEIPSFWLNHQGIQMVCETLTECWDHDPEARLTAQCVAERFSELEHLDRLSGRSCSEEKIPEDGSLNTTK

[39] = molecular target: Mitogen-activated protein kinase 4 (Homo sapiens) (UniProt P31152); settings: Compound concentration 1000.0 nM
[40] = molecular target: Serine/threonine-protein kinase N1 (Homo sapiens) (UniProt Q16512); settings: Compound concentration 1000.0 nM
[41] = molecular target: Beta-adrenergic receptor kinase 1 (Homo sapiens) (UniProt P25098); settings: Compound concentration 1000.0 nM
Beta-adrenergic receptor kinase 1 (Homo sapiens), sequence (P25098 whole entry): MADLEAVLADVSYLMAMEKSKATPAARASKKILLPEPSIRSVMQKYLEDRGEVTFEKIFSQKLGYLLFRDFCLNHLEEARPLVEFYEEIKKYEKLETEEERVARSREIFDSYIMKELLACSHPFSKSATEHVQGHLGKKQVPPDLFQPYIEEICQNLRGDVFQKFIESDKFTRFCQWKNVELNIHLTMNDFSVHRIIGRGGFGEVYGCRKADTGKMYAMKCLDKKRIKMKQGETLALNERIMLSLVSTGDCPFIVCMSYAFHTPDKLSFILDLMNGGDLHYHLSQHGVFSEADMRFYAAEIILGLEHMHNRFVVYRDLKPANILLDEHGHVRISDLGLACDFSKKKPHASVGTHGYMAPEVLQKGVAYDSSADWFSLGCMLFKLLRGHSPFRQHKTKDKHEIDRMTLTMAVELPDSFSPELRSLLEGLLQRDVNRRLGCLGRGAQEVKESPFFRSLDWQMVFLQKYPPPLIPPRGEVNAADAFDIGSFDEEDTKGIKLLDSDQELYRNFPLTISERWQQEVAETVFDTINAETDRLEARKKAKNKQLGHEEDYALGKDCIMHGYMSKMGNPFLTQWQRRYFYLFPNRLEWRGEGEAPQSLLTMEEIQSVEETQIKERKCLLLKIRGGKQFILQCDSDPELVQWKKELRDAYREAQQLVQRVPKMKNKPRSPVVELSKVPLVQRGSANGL

[42] = molecular target: 5-hydroxytryptamine receptor 6 (Homo sapiens) (UniProt P50406); settings: Compound concentration 10.0 uM
[43] = molecular target: Dual specificity protein kinase CLK3 (Homo sapiens) (UniProt P49761); settings: Compound concentration 1000.0 nM
[44] = molecular target: Mitogen-activated protein kinase kinase kinase kinase 3 (Homo sapiens) (UniProt Q8IVH8); settings: Compound concentration 1000.0 nM
[45] = molecular target: Cyclin-dependent kinase 16 (Homo sapiens) (UniProt Q00536); settings: Compound concentration 1000.0 nM
Cyclin-dependent kinase 16 (Homo sapiens), sequence (Q00536 whole entry): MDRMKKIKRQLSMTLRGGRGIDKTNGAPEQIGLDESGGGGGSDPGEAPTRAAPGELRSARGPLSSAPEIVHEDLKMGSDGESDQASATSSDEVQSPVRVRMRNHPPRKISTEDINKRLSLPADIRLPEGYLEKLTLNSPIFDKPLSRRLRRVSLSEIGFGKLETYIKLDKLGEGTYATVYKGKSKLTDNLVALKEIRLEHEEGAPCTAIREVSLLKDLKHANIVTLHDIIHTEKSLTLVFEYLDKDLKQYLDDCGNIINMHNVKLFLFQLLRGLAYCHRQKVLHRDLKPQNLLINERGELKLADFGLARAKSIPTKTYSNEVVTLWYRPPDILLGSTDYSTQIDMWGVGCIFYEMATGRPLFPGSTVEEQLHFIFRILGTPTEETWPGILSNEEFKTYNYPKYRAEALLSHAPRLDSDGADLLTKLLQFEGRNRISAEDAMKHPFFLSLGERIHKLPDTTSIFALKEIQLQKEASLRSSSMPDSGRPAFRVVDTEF

C[C@H](c1ccc(F)cc1)N(Cc1cccc(C(=O)O)c1)C(=O)c1cnc2ccccc2c1 [PF-05105679]
inhibition [1]: 18%
residual activity [2]: 100%
inhibition [3]: 16.6%
residual activity [4]: 100%
residual activity [5]: 100%
residual activity [6]: 83%
residual activity [7]: 100%
residual activity [8]: 100%
residual activity [9]: 100%
residual activity [10]: 100%
residual activity [11]: 90%
residual activity [12]: 100%
residual activity [13]: 100%
residual activity [14]: 49%
residual activity [15]: 100%
residual activity [16]: 100%
residual activity [17]: 100%
residual activity [18]: 100%
residual activity [19]: 100%
residual activity [20]: 100%
residual activity [21]: 100%
residual activity [22]: 76%
residual activity [23]: 73%
residual activity [24]: 100%
residual activity [25]: 100%
residual activity [26]: 92%
residual activity [27]: 100%
residual activity [28]: 92%
residual activity [29]: 100%
residual activity [30]: 100%
residual activity [31]: 61%
residual activity [32]: 100%
residual activity [33]: 100%
residual activity [34]: 100%
residual activity [35]: 91%
IC50 [36]: 480 nM (active)
residual activity [37]: 100%
residual activity [38]: 100%
residual activity [39]: 93%
residual activity [40]: 100%
residual activity [41]: 80%
inhibition [42]: 3.57%
residual activity [43]: 100%
residual activity [44]: 90%
residual activity [45]: 100%
